According to patent US20020013372A1, “Pharmacophore models for the identification of the CYP2D6 inhibitory potency of selective serotonin reuptake inhibitors” (priority 2000, published 2002):
“And” between values parts separate entries of the source, which are not always exact repeats. Equal values may be shown once.

Target: T1, CYP2D6 (Homo sapiens, UniProt P10635)
T1 sequence (P10635 whole entry): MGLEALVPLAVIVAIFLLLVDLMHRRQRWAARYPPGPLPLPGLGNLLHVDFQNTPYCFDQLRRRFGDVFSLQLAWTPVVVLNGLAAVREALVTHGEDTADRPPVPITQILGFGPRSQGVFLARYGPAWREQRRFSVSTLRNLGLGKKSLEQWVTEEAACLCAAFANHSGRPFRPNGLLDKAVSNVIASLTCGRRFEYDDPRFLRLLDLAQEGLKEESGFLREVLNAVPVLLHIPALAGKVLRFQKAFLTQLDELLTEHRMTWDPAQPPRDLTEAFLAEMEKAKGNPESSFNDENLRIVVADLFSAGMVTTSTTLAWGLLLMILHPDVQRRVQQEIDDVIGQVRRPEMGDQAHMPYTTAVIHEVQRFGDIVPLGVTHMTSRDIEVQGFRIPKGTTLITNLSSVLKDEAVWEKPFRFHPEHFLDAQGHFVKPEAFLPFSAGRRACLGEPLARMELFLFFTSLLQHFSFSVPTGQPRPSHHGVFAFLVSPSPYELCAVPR
Assay: not given
Settings: read-out: Observed K1 (apparent); individual literature values, source per footnote b-l of Table I; cited from earlier work
For `CNCCCC1(c2ccc(F)cc2)OCc2cc(C#N)ccc21` (stereo not drawn) [Desmethylcitalopram], the Ki is listed as 1.3 µM and 6 µM. For `CN(C)CCCC1(c2ccc(F)cc2)OCc2cc(C#N)ccc21` (stereo not drawn) [Citalopram], the Ki is listed as 5.1 µM and 19 µM and 7 µM. In the case of `N[C@H]1CC[C@@H](c2ccc(Cl)c(Cl)c2)c2ccccc21` [Desmethylsertraline], the Ki is given as 16 µM.

Same assay, conditions: read-out: observed K1 (apparent); training set of 14 amphetamine compounds, Wu et al., Biochem. Pharmacol. 53: 1605-1612 (1997); cited from earlier work
For `COc1cc(CC(C)N)cc2c1OCO2` (stereo not drawn) [(d,l)-3-methoxy-4,5-methylenedioxyamphetamine], the Ki is listed as 2.2 µM. For (+)-methamphetamine, the Ki is given as 25 µM. For `COc1cc(CC(C)N)cc(OC)c1OC` (stereo not drawn) [(d,l)-3,4,5-trimethoxyamphetamine], the Ki is listed as 128 µM. For `CNC(C)Cc1ccc(O)cc1` (stereo not drawn) [(d,l)-4-hydroxymethamphetamine], the Ki is given as 60 µM. In the case of `CNC(C)Cc1ccc2c(c1)OCO2` (stereo not drawn) [(d,l)-3,4-methylenedioxymethamphetamine], the Ki is given as 0.6 µM. For `C[C@H](N)C(=O)c1ccccc1` [(d,l)-cathinone], the Ki is listed as 340 µM. For `CC(N)Cc1ccc(O)cc1` (single isomer, unassigned; (+)) [(+)-4-hydroxyamphetamine], the Ki is given as 195 µM. For `COc1ccc(CC(C)N)cc1` (stereo not drawn) [(d,l)-4-methoxyamphetamine], the Ki is given as 24 µM. In the case of `CC(N)Cc1ccc2c(c1)OCO2` (stereo not drawn) [(d,l)-3,4-methylenedioxyamphetamine], the Ki is listed as 1.8 µM. For `COc1cc2c(cc1CC(C)N)OCO2` (stereo not drawn) [(d,l)-2-methoxy-4,5-methylenedioxyamphetamine], the Ki is given as 0.17 µM. For `COc1cccc(CC(C)N)c1` (stereo not drawn) [(d,l)-3-methoxyamphetamine], the Ki is listed as 17.5 µM. In the case of `CC(N)Cc1ccccc1` (single isomer, unassigned; (+)) [(+)-amphetamine], the Ki is given as 26.5 µM. For `COc1cc(OC)c(CC(C)N)c(OC)c1` (stereo not drawn) [(d,l)-2,4,6-trimethoxyamphetamine], the Ki is listed as 33 µM. For `COc1ccccc1CC(C)N` (stereo not drawn) [(d,l)-2-methoxyamphetamine], the Ki is listed as 11.5 µM.

Target: T1, CYP2D6
Assay: In vitro inhibition of CYP2D6, observed Ki (apparent) values from the literature
Settings: not given
Description: Many SSRI's are known to be inhibitors of cytochrome P450 (CYP), including CYP2D6 mediated metabolic pathways in vivo and in vitro (Belpair et al., Eur. J Clin. Pharmacol., 54: 261-264, 1998; Crewe et al., Br. J. Clin. Pharmacol., 34: 262-265, 1992; Otton et al, Clin. Pharmacol. Ther., 53: 401-409, 1993; Skjelbo et al., Br. J. Clin. Pharmacol., 34: 256-261, 1992; Stevens et al., J. Pharmacol. Exp. Ther., 266: 964-971, 1993). […] As CYP2D6 is of major concern because of its polymorphic nature (Brosen, Ther. Drug Monitoring, 18: 393-396, 1996), the ability to predict whether a drug will interact with this CYP represents a serious advance in the pharmaceutical arts. The potential for CYP2D6 inhibition in vivo can be predicted reliably using systems such as human liver microsomes and recombinant enzymes, along with a know substrate probe for CYP2D6. By generating a K1 (apparent) value and knowledge of the plasma concentration of the drug, it is possible to reliably predict the likelihood of drug-drug interactions in vivo (Ring et al., J. Pharmacol. Exp. Ther., 275: 1131-1135, 1995).
Present technologies have centered around the use of in vitro testing using human liver microsomes or recombinant CYPs and a known catalytic probe for CYP2D6 such as bufuralol. However, the possible volume of in vitro studies is often limited by equipment and materials cost, incubation volume and the rate of analytical determination. […] Generating this in vitro parameter appears to be dependent on the substrate probe used as well as other experimental variables.
Compound `CNCCCC1(c2ccc(F)cc2)OCc2cc(C#N)ccc21` (stereo not drawn) [Desmethylcitalopram] has a Ki of 3.65 µM. `CN(C)CCCC1(c2ccc(F)cc2)OCc2cc(C#N)ccc21` (stereo not drawn) [Citalopram] gave a Ki of 10.4 µM. `CN[C@H]1CC[C@@H](c2ccc(Cl)c(Cl)c2)c2ccccc21` [Sertraline] showed a Ki of 6.52 µM. `NCCC(Oc1ccc(C(F)(F)F)cc1)c1ccccc1` (stereo not drawn) [Norfluoxetine] showed a Ki of 1.07 µM.
